Test results published in patent US11446253B2, “Ionic liquids for internal delivery” (priority 2017, dated 2022).
Where “and” joins values, the source holds several entries; their conditions need not be identical. Equal entries are not always repeated.

Legend:
[1] = stored at 4° C.; cited from earlier work
[2] = Serum insulin pharmacokinetics (human insulin ELISA); conditions: for AUCtotal: insulin-CAGE 5 U/kg intrajejunal, insulin 2 U/kg subcutaneous
Experimental: Standard protocol was followed for separation of serum from whole blood. Briefly, the blood samples were left undisturbed at RT for 15-30 minutes to allow clot formation, followed by centrifugation at 2,000 g for 10 minutes.
Fasting prior to anti-diabetic efficacy studies is routinely done (29, 62, 63). It helps avoid fluctuations in the blood glucose levels as a result of eating, which can vary between animals based on the amount and time of food intake. All animal experiments were performed in accordance with the University of California Santa Barbara animal care committee guidelines and to the Guide for the Care and Use of Animals of the Institute of Laboratory Animal Resources, National Research Council. […] The time zero blood glucose was taken after the intestine was exposed i.e. immediately prior to the injections. […] Loss in body temperature in the animals during anesthesia was prevented by placing the animals on temperature controlled warming pads prior to surgery followed by additional towel cover after surgery. The animals remained anesthetized throughout the study and were euthanized after 5 h. […] In addition, the saline group was considered as fasting control and graphs were plotted after subtracting blood glucose levels of the saline group. […] Standard protocol was followed for separation of serum from whole blood. Briefly, blood samples were left undisturbed at RT for 15-30 minutes to clot, followed by centrifugation at 2,000 g for 10 minutes. […] Pharmacodynamic bioavailability was calculated using AUC obtained from efficacy plots.

[3] = molecular target: T1, bovine trypsin (Bos taurus, UniProt P00760); experiment: Trypsin-mediated degradation of insulin (LC-MS); type: biochemical; conditions: incubated with trypsin, 37° C., 24 h
T1 construct: purchased MP Biomedicals (Santa Ana, Calif., USA)
T1 sequence (P00760 24-246): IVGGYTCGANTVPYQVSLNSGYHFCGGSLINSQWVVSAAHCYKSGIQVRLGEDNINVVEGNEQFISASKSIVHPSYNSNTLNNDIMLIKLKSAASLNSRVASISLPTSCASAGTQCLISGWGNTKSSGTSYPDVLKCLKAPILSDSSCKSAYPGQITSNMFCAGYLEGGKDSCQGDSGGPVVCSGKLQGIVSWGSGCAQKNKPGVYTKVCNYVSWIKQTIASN
Experimental: Immediately after vortex (time=0 h; t0) and at predetermined time intervals, 0.1 mL of the insulin-trypsin mixture was aliquoted, and the enzyme activity was inhibited by the addition of 0.1 mL of ice-cold 0.1% trifluoroacetic acid/acetonitrile solution (69:31, v/v). The samples were analyzed by liquid chromatography-mass spectrometry (LC-MS) to determine the amount of intact insulin in the solution at different times. An Agilent 1290/6140 Ultra High Performance Liquid Chromatography/Mass Spectrometer consisting of a 1290 Infinity LC™ binary pump, thermostat column compartment, 1290 Infinity autosampler, an Agilent 1290 diode array detector and an Agilent 6140 quadrupole MSD system was used for the analyses. For an analysis, 3 μL of the samples were injected into an Agilent 300SB-C18 2.1×75 mm, 5 μm, maintained at 25° C. and eluted with a mobile phase consisting of a gradient mixture of deionized water with 0.1% formic acid (FA) (A) and acetonitrile (B) with 0.1% FA. A gradient of 95-5% (0 min), 0-100% (10 min), 0-100% (15 min), 95-5% (15.1 min), 95-5% (18 min) A:B was used for each run. […] All experiments were conducted in triplicate and are reported are mean±standard deviation.

[4] = tested on: non-diabetic male Wistar rats; experiment: In vivo bioactivity of insulin isolated from CAGE after storage; design: species or system rat; conditions: fresh, 1 U/kg subcutaneous, listed as Freshly prepared insulin solution
Text: Prior to insulin injections, rats were fasted overnight but given free access to water and fasting continued throughout the study to eliminate variability in blood glucose due to food consumption. The results were plotted as % change in blood glucose compared to initial level vs time.

[5] = tested on: Caco-2 cells; experiment: Tight junction integrity (TEER) in Caco-2 cells; type: cell-based, human; conditions: FITC-insulin with 10 mM CAGE or saline, 5 h
Experimental: […] Furthermore, TEER was measured at every time point when aliquots were withdrawn from the transwells and plotted as % change from initial value vs time.
TEER values were recorded for each insert. […] TEER was plotted as % change from initial value vs time.

[6] = tested on: non-diabetic male Wistar rats; experiment: Blood glucose lowering after intrajejunal administration; type: in vivo, rat
Experimental: Before the start of the study, the rats were anesthetized, abdominal hair clipped and the area prepped for surgery using 70% ethanol and betadine. An incision was made in the abdomen to expose the intestine. […] Each formulation was tested in 6 rats with the exception of saline which was tested in only 3 rats. Thereafter, intestinal section was placed back into the abdomen and the muscle and skin sutured. Blood glucose was determined using a commercial glucose meter in the beginning and at every 0.5 h till the end of study at 5 h. The animals remained anesthetized throughout the study, at the end of which they were euthanized and the intestinal section around the injection site was removed for further histological examination to determine toxicity, if any. […] The results were plotted as % change in blood glucose levels with respect to initial reading at t=0 vs time.
Before the start of the study, the rats were anesthetized, abdominal hair clipped, and the surgery area was prepped using 70% ethanol and betadine. An incision was made in the abdomen to expose the intestine. […] The time zero blood glucose was taken after the intestine was exposed i.e. immediately prior to the injections. Each formulation was tested in 6 rats with the exception of saline which was tested in only 3 rats. Thereafter, intestinal section was placed back into the abdomen and the muscle and skin sutured. Blood glucose was determined using a commercial glucose meter at the beginning and at every 0.5 h till the end of study at 5 h. Loss in body temperature in the animals during anesthesia was prevented by placing the animals on temperature controlled warming pads prior to surgery followed by additional towel cover after surgery. The animals remained anesthetized throughout the study and were euthanized after 5 h. At the end of study at 5 h, the intestinal section around the injection site was removed for further histological examination to determine toxicity, if any. […] The results were plotted as % change in blood glucose levels with respect to initial reading vs time. In addition, the saline group was considered as fasting control and graphs were plotted after subtracting blood glucose levels of the saline group.

[7] = tested on: Non-diabetic Wistar rats; experiment: Consecutive oral dosing of neat CAGE capsule and insulin capsule; type: in vivo, rat; conditions: 10 U/kg insulin oral, 10 h
Experimental: Non-diabetic Wistar rats were fasted overnight for 8 h but given access to water ad libitum. […] The blood glucose for time 0 was evaluated at this point. […] Fasting was continued with free access to water till the end of study at 12 h and blood glucose was evaluated at various time points. The results were plotted as % change in blood glucose compared to initial level vs time.

[8] = tested on: Caco-2 monolayers; experiment: FITC-insulin transport across Caco-2 monolayers; type: cell-based, human; conditions: Caco-2 monolayers, end of study at 5 h, 10 mM CAGE or saline
Experimental: TEER was measured on a regular basis and when it reached above 200 ohms·cm^2, indicating sufficient tight junction integrity between cells, transport study was performed.
(§1) After the end of study at 5 h, the FITC-insulin concentration in the aliquots were measured using a plate reader (Tecan, Infinite M1000, Mannedorf, Switzerland) at 495/520 nm excitation/emission wavelengths and plotted as % FITC-insulin transport vs time. Furthermore, TEER was measured at every time point when aliquots were withdrawn from the transwells and plotted as % change from initial value vs time.
TEER was measured on a regular basis and when it reached above 200 ohms. cm2, indicating sufficient tight junction integrity between cells, transport study was performed.
as §1, with “[…]” for “% change from initial value”

[9] = tested on: non-diabetic male Wistar rats; experiment: Blood glucose lowering after oral administration in enterically coated capsules; type: in vivo, rat
Experimental: (§2) For the oral efficacy study, adult non-diabetic male Wistar rats were fasted overnight but given free access to water. On the next day, the capsules were administered to the rats using an oral gavage followed by subcutaneous administration of 5 mg/kg metoclopramide HCl to promote gastric emptying. Blood glucose was thereafter measured using a commercial glucose meter and subsequently every hour till 12 h. Rats were fasted throughout the period of study. […] In addition, the efficacy of subcutaneously injected 2 U/kg insulin-saline was also evaluated. […] The results were plotted as percent change in blood glucose level vs time.
as §2, with “To determine the efficacy of insulin-CAGE administered through the oral route, elongated size 9 capsules were used. […] Following this, the capsules were enterically coated three times with 12.5% w/v Eudragit® L-100 dissolved in isopropanol. For” for “For”, “Next” for “On the next”, “was” for “was also”, “time. […] After 12 h of study, rats were euthanized, and small intestinal sections were collected for tissue histology.” for “time.”

insulin: human insulin (Sigma-Aldrich) in saline or buffer, comparator
stability at 4° C. [1]: 2 to 7 days
serum insulin concentration ([2]; 3 U/kg intrajejunal): hardly increased
serum insulin level with time ([2]; 5 U/kg intrajejunal): did not show any increase
AUCtotal ([2]; Table 1): 237.6 μIU · h/ml
AUCtotal ([2]; Table 2): 237.6 μIU · h/mL
intact insulin remaining [3]: 5±0.4%
blood glucose, % of initial level ([4]; 1 h): 50.73±2.47% and 51±2%
drop in blood glucose ([4]; 1 h): 50% and 49%
blood glucose, % of initial level ([4]; 2 h): 49.59±4.4% and 50±4%
blood glucose, % of original level ([4]; 5 h): 92.05±4.8% and 92±5%
TEER, % of initial value [5]: 98.5±2.64%
blood glucose, % of initial level ([6]; 2 U/kg subcutaneous, 1 h): 48.76±7.55% and 49±8%
maximum drop in blood glucose ([6]; 2 U/kg subcutaneous, 1 h): 51%
blood glucose, % of initial level ([6]; 2 U/kg subcutaneous, 5 h): 101.61±6.69% and 101±7%
decrease in blood glucose of control groups, % of initial level ([6]; intrajejunal controls (neat CAGE, 3 U/kg insulin-saline), 5 h): about 25%
blood glucose drop [7]: around 34%
blood glucose, % of initial levels [7]: 66.9±7.1%
FITC-insulin transport [8]: 10%
blood glucose, % of initial level ([9]; 2 U/kg subcutaneous, 1 h): 51.43±5.25% and 51±5%
drop in blood glucose ([9]; 2 U/kg subcutaneous, 1 h): 50% and 49%
decrease in blood glucose of formulation controls ([9]; oral controls, 12 h): about 25%
